PubChem BioAssay (NCI)
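Growth conditions: 96-well plates. Treatment: test compound, 48 hours, 5 concentrations. Analysis: linear interpolation between bracketing concentrations; unreached endpoints set to highest concentration. The concentration for full growth arrest is given as TGI.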

Legend:
Assay in all cases: inhibition of tumour cell growth, NCI panel, 48 h
A498 renal = test system: A498 renal
SNB-75 CNS = test system: SNB-75 CNS
IGROV1 ovarian = test system: IGROV1 ovarian
MALME-3M melanoma = test system: MALME-3M melanoma
SF-295 CNS = test system: SF-295 CNS
NCI-H522 lung = test system: NCI-H522 lung
UACC-62 melanoma = test system: UACC-62 melanoma
U251 CNS = test system: U251 CNS
HCT-116 colon = test system: HCT-116 colon
DMS 114 small cell lung = test system: DMS 114 small cell lung
KM12 colon = test system: KM12 colon
CAKI-1 renal = test system: CAKI-1 renal
NCI-H226 lung = test system: NCI-H226 lung
HCC-2998 colon = test system: HCC-2998 colon
DLD-1 colon = test system: DLD-1 colon
DMS 273 small cell lung = test system: DMS 273 small cell lung
SK-OV-3 ovarian = test system: SK-OV-3 ovarian
KM20L2 colon = test system: KM20L2 colon
EKVX NSCLC = test system: EKVX NSCLC
CCRF-CEM leukemia = test system: CCRF-CEM leukemia
HT29 colon = test system: HT29 colon
M14 melanoma = test system: M14 melanoma
OVCAR-4 ovarian = test system: OVCAR-4 ovarian
K-562 leukemia = test system: K-562 leukemia
OVCAR-5 ovarian = test system: OVCAR-5 ovarian
HOP-18 NSCLC = test system: HOP-18 NSCLC
MOLT-4 leukemia = test system: MOLT-4 leukemia
XF 498 CNS = test system: XF 498 CNS
COLO 205 colon = test system: COLO 205 colon
NCI-H23 lung = test system: NCI-H23 lung
OVCAR-8 ovarian = test system: OVCAR-8 ovarian
OVCAR-3 ovarian = test system: OVCAR-3 ovarian
HCT-15 colon = test system: HCT-15 colon
UACC-257 melanoma = test system: UACC-257 melanoma
HOP-62 NSCLC = test system: HOP-62 NSCLC
SF-268 CNS = test system: SF-268 CNS
SN12C renal = test system: SN12C renal
TK-10 renal = test system: TK-10 renal
SK-MEL-28 melanoma = test system: SK-MEL-28 melanoma
SK-MEL-2 melanoma = test system: SK-MEL-2 melanoma
ACHN renal = test system: ACHN renal
786-0 renal = test system: 786-0 renal
A549 NSCLC = test system: A549 NSCLC
M19-MEL melanoma = test system: M19-MEL melanoma
LXFL 529 NSCLC = test system: LXFL 529 NSCLC
NCI-H460 lung = test system: NCI-H460 lung
SNB-19 CNS = test system: SNB-19 CNS
SF-539 CNS = test system: SF-539 CNS
SK-MEL-5 melanoma = test system: SK-MEL-5 melanoma
HOP-92 NSCLC = test system: HOP-92 NSCLC
SR leukemia = test system: SR leukemia
SW-620 colon = test system: SW-620 colon
RPMI-8226 leukemia = test system: RPMI-8226 leukemia
UO-31 renal = test system: UO-31 renal
HL-60(TB) leukemia = test system: HL-60(TB) leukemia
RXF 393 renal = test system: RXF 393 renal
LOX IMVI melanoma = test system: LOX IMVI melanoma
SNB-78 CNS = test system: SNB-78 CNS

## O=C1OC(CC(=O)c2ccc(Cl)cc2)C(Cl)=C1Cl (stereo unspecified)
A498 renal
  TGI: > 100 µM
SNB-75 CNS
  TGI: > 100 µM
IGROV1 ovarian
  TGI: > 100 µM
MALME-3M melanoma
  TGI: > 100 µM
SF-295 CNS
  TGI: > 100 µM
NCI-H522 lung
  TGI: > 100 µM
UACC-62 melanoma
  TGI: > 100 µM
U251 CNS
  TGI: > 100 µM
HCT-116 colon
  TGI: > 100 µM
DMS 114 small cell lung
  TGI: > 100 µM
KM12 colon
  TGI: > 100 µM
CAKI-1 renal
  TGI: > 100 µM
NCI-H226 lung
  TGI: > 100 µM
HCC-2998 colon
  TGI: > 100 µM
DLD-1 colon
  TGI: > 100 µM
DMS 273 small cell lung
  TGI: > 100 µM
SK-OV-3 ovarian
  TGI: > 100 µM
KM20L2 colon
  TGI: > 100 µM
EKVX NSCLC
  TGI: > 100 µM
CCRF-CEM leukemia
  TGI: > 100 µM
HT29 colon
  TGI: > 100 µM
M14 melanoma
  TGI: > 100 µM
OVCAR-4 ovarian
  TGI: > 100 µM
K-562 leukemia
  TGI: > 100 µM
OVCAR-5 ovarian
  TGI: > 100 µM
HOP-18 NSCLC
  TGI: > 100 µM
MOLT-4 leukemia
  TGI: > 100 µM
XF 498 CNS
  TGI: > 100 µM
COLO 205 colon
  TGI: > 100 µM
NCI-H23 lung
  TGI: > 100 µM
OVCAR-8 ovarian
  TGI: > 100 µM
OVCAR-3 ovarian
  TGI: > 100 µM
HCT-15 colon
  TGI: > 100 µM
UACC-257 melanoma
  TGI: > 100 µM
HOP-62 NSCLC
  TGI: > 100 µM
SF-268 CNS
  TGI: > 100 µM
SN12C renal
  TGI: > 100 µM
TK-10 renal
  TGI: > 100 µM
SK-MEL-28 melanoma
  TGI: > 100 µM
SK-MEL-2 melanoma
  TGI: > 100 µM
ACHN renal
  TGI: > 100 µM
786-0 renal
  TGI: > 100 µM
A549 NSCLC
  TGI: > 100 µM
M19-MEL melanoma
  TGI: > 100 µM
LXFL 529 NSCLC
  TGI: > 100 µM
NCI-H460 lung
  TGI: > 100 µM
SNB-19 CNS
  TGI: > 100 µM
SF-539 CNS
  TGI: > 100 µM
SK-MEL-5 melanoma
  TGI: > 100 µM
HOP-92 NSCLC
  TGI: > 100 µM
SR leukemia
  TGI: > 100 µM
SW-620 colon
  TGI: > 100 µM
RPMI-8226 leukemia
  TGI: > 100 µM
UO-31 renal
  TGI: > 100 µM
HL-60(TB) leukemia
  TGI: 76.9 µM

## [O-][n+]1c2cc(CBr)c(CBr)cc2[n+]([O-])c2c(O)cccc21
A498 renal
  TGI: 25.7 µM
SNB-75 CNS
  TGI: 4.48 µM
IGROV1 ovarian
  TGI: 8.59 µM
MALME-3M melanoma
  TGI: 3.47 µM
SF-295 CNS
  TGI: 3.27 µM
NCI-H522 lung
  TGI: 1.16 µM
UACC-62 melanoma
  TGI: 3.39 µM
U251 CNS
  TGI: 7.07 µM
HCT-116 colon
  TGI: 2.87 µM
DMS 114 small cell lung
  TGI: 3.35 µM
KM12 colon
  TGI: 3.66 µM
CAKI-1 renal
  TGI: 6.7 µM
NCI-H226 lung
  TGI: 14.2 µM
DLD-1 colon
  TGI: 2.71 µM
DMS 273 small cell lung
  TGI: 3.22 µM
SK-OV-3 ovarian
  TGI: 9.15 µM
KM20L2 colon
  TGI: 9.53 µM
EKVX NSCLC
  TGI: 11.6 µM
CCRF-CEM leukemia
  TGI: 0.714 µM
HT29 colon
  TGI: 3.88 µM
M14 melanoma
  TGI: 3.29 µM
OVCAR-4 ovarian
  TGI: 5.25 µM
OVCAR-5 ovarian
  TGI: 3.74 µM
HOP-18 NSCLC
  TGI: 10.5 µM
MOLT-4 leukemia
  TGI: 1.25 µM
XF 498 CNS
  TGI: 4.67 µM
COLO 205 colon
  TGI: 3.47 µM
NCI-H23 lung
  TGI: 6.68 µM
OVCAR-8 ovarian
  TGI: 3.3 µM
OVCAR-3 ovarian
  TGI: 5.24 µM
HCT-15 colon
  TGI: 3.18 µM
UACC-257 melanoma
  TGI: 6.37 µM
HOP-62 NSCLC
  TGI: 34.7 µM
SF-268 CNS
  TGI: 5.91 µM
SN12C renal
  TGI: 3.05 µM
TK-10 renal
  TGI: 10.9 µM
SK-MEL-28 melanoma
  TGI: 3.67 µM
SK-MEL-2 melanoma
  TGI: 4.83 µM
ACHN renal
  TGI: 3.51 µM
786-0 renal
  TGI: 2.93 µM
A549 NSCLC
  TGI: 9.03 µM
M19-MEL melanoma
  TGI: 3.32 µM
LXFL 529 NSCLC
  TGI: 2.89 µM
NCI-H460 lung
  TGI: 4.21 µM
SNB-19 CNS
  TGI: 11 µM
RXF 393 renal
  TGI: 3.69 µM
SK-MEL-5 melanoma
  TGI: 4.39 µM
HOP-92 NSCLC
  TGI: 2.92 µM
SR leukemia
  TGI: 0.662 µM
SW-620 colon
  TGI: 2.9 µM
UO-31 renal
  TGI: 4.56 µM
HL-60(TB) leukemia
  TGI: 1.14 µM
LOX IMVI melanoma
  TGI: 2.64 µM

## Cc1ccc(C2=C(c3ccccc3)C(=O)C(c3ccccc3)=C2c2ccc(C)cc2)cc1
A498 renal
  TGI: > 100 µM
SNB-75 CNS
  TGI: > 100 µM
IGROV1 ovarian
  TGI: > 100 µM
MALME-3M melanoma
  TGI: > 100 µM
SF-295 CNS
  TGI: > 100 µM
NCI-H522 lung
  TGI: > 100 µM
U251 CNS
  TGI: > 100 µM
HCT-116 colon
  TGI: > 100 µM
KM12 colon
  TGI: > 100 µM
NCI-H226 lung
  TGI: > 100 µM
HCC-2998 colon
  TGI: > 100 µM
DLD-1 colon
  TGI: > 100 µM
SK-OV-3 ovarian
  TGI: > 100 µM
KM20L2 colon
  TGI: > 100 µM
EKVX NSCLC
  TGI: > 100 µM
CCRF-CEM leukemia
  TGI: 70.5 µM
HT29 colon
  TGI: > 100 µM
M14 melanoma
  TGI: > 100 µM
K-562 leukemia
  TGI: > 100 µM
OVCAR-5 ovarian
  TGI: > 100 µM
HOP-18 NSCLC
  TGI: > 100 µM
MOLT-4 leukemia
  TGI: > 100 µM
XF 498 CNS
  TGI: > 100 µM
NCI-H23 lung
  TGI: 85.1 µM
SNB-78 CNS
  TGI: > 100 µM
OVCAR-8 ovarian
  TGI: > 100 µM
HCT-15 colon
  TGI: > 100 µM
UACC-257 melanoma
  TGI: > 100 µM
HOP-62 NSCLC
  TGI: > 100 µM
SF-268 CNS
  TGI: > 100 µM
SN12C renal
  TGI: > 100 µM
TK-10 renal
  TGI: > 100 µM
SK-MEL-28 melanoma
  TGI: 48 µM
SK-MEL-2 melanoma
  TGI: > 100 µM
ACHN renal
  TGI: > 100 µM
786-0 renal
  TGI: > 100 µM
A549 NSCLC
  TGI: > 100 µM
M19-MEL melanoma
  TGI: > 100 µM
LXFL 529 NSCLC
  TGI: > 100 µM
NCI-H460 lung
  TGI: > 100 µM
SNB-19 CNS
  TGI: > 100 µM
RXF 393 renal
  TGI: > 100 µM
SF-539 CNS
  TGI: 46.9 µM
SK-MEL-5 melanoma
  TGI: > 100 µM
SR leukemia
  TGI: > 100 µM
SW-620 colon
  TGI: 95.7 µM
RPMI-8226 leukemia
  TGI: > 100 µM
UO-31 renal
  TGI: > 100 µM
